Target: T1, αIIbβ3 integrin (K562-αIIbβ3 cells) (Homo sapiens, UniProt P05106+P08514)
T1 construct: expressed in transfected cells; host or cells: K562 leukemia cells (from S. Blystone)
Assay: Cell binding assay on K562-αIIbβ3 cells (flow cytometry)
Settings: K562-αIIbβ3 versus K562-αvβ3 cells
Description: K562 cells stably expressing αIIbβ3, αvβ3, or αvβ5 were obtained from S. Blystone and maintained in IMDM media (Gibco) containing 10% FBS and 1.0 mg/mL geneticin. For binding assays, 10^5 cells were suspended in IBB, and varying concentrations of AgRP peptides were added. After 3 hour incubation at 4° C., the cells were centrifuged, aspirated, and resuspended in ice-cold BPBS containing a 1:20 dilution of fluorescein-conjugated goat anti-His antibody (Bethyl) for […]. The cells were then centrifuged, aspirated, and stored as pellets on ice until analysis by flow cytometry using a BD FACS Caliber instrument Becton Dickinson. Binding data was analyzed with FlowJo (Treestar, Inc.) and data was fit to sigmoidal plots using Kaleidagraph (Synergy Software) to calculate equilibrium dissociation constants. Experiments were performed at least 3 times and data are presented as average values with standard deviations.
To determine the integrin binding affinities and specificities of the engineered AgRP peptides, direct binding assays were performed using K562 leukemia cells that have been transfected to stably express different integrin receptors See J. Cell Biol. 127(4) (1994). Cells were incubated in the presence of varying concentrations of AgRP peptides at 4° C., to minimize receptor internalization, followed by staining with a fluorescein-conjugated anti-hexahistidine antibody and analysis by flow cytometry. Equilibrium dissociation constants (KD values) were determined by plotting AgRP peptide concentration (log scale) versus normalized mean fluorescence intensity, then fitting the data to a sigmoidal curve.

T1 sequence (P08514 32-887 limits assumed): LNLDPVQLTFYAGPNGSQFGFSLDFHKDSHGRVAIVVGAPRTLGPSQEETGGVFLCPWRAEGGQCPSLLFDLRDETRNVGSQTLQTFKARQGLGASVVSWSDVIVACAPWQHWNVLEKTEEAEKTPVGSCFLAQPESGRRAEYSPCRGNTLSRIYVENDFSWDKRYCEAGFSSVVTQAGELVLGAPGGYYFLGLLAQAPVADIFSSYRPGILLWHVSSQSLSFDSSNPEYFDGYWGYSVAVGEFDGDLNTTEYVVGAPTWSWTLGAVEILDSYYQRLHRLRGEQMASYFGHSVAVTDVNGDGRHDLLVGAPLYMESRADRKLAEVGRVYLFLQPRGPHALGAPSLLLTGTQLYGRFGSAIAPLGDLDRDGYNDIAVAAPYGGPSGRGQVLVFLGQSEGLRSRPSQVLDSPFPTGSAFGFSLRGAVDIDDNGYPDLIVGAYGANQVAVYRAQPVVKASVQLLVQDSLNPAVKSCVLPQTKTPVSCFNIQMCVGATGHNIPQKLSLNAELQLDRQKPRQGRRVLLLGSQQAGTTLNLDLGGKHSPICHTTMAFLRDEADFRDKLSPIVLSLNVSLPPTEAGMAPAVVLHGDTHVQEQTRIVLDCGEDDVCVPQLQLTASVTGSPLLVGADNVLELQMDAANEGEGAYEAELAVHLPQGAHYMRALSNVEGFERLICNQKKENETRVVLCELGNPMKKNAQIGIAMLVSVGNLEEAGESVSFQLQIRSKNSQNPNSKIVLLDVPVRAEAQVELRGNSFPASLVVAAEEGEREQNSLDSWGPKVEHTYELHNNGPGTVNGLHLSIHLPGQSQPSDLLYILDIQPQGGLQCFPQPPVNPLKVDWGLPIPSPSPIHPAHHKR
T1 sequence (P08514 891-1039 partner limits assumed): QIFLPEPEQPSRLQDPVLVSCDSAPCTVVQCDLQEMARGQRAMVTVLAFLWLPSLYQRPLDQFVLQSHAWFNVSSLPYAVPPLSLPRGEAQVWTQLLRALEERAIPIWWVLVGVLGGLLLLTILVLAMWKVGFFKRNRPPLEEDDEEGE
T1 sequence (P05106 27-788): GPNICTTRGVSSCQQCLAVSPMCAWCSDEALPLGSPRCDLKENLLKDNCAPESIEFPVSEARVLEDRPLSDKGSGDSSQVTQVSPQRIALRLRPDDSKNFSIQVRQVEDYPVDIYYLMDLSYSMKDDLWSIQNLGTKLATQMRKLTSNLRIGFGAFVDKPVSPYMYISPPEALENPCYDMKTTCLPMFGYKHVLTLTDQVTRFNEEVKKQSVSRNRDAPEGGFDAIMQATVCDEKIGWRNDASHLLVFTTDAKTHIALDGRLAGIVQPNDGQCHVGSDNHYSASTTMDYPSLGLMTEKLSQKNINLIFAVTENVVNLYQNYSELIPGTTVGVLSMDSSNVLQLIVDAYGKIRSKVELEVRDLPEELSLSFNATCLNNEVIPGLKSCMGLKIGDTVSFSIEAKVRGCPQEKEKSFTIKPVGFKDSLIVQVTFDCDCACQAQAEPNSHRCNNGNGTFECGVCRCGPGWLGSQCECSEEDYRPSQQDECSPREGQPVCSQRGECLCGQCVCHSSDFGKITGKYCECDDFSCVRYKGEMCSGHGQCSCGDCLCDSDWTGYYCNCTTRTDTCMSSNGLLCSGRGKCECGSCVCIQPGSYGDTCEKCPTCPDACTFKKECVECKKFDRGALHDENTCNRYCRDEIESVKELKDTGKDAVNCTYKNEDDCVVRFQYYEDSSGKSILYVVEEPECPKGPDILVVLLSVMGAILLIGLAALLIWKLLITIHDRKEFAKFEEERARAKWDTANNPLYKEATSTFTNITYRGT

Compound	integrin binding specificity on K562 cell lines
CC(C)C[C@@H]1NC(=O)[C@@H]2CSSC[C@@H]3NC(=O)[C@H]([C@@H](C)O)NC(=O)[C@H](C)NC(=O)[C@H](C)NC(=O)[C@@H]4CCCN4C(=O)[C@H](CC(=O)O)NC(=O)[C@H](CSSC[C@H](NC(=O)CNC(=O)[C@H](CCCNC(=N)N)NC(=O)[C@@H]4CCCN4C(=O)[C@H](CCCCN)NC(=O)[C@H](CC(=O)O)NC(=O)[C@H](CC(=O)O)NC(=O)[C@H](CC(=O)O)NC(=O)[C@H](CC(=O)O)NC(=O)[C@H](CCCCN)NC(=O)[C@H](Cc4ccc(O)cc4)NC(=O)[C@H](CC(=O)O)NC(=O)[C@@H](NC(=O)[C@@H](N)Cc4ccc(O)cc4)C(C)C)C(=O)N[C@@H](C(C)C)C(=O)N[C@@H](CCCNC(=N)N)C(=O)N[C@@H](CC(C)C)C(=O)N[C@@H](Cc4c[nH]cn4)C(=O)N[C@@H](CCC(=O)O)C(=O)N[C@@H](CO)C(=O)N2)NC(=O)[C@H](CSSC[C@@H](C(=O)N[C@@H](CCCNC(=N)N)C(=O)N[C@H](C(=O)N[C@@H](CCCNC(=N)N)C(=O)N[C@@H](Cc2c[nH]cn2)C(=O)N[C@@H](Cc2c[nH]cn2)C(=O)N[C@@H](Cc2c[nH]cn2)C(=O)N[C@@H](Cc2c[nH]cn2)C(=O)N[C@@H](Cc2c[nH]cn2)C(=O)N[C@@H](Cc2c[nH]cn2)C(=O)O)[C@@H](C)O)NC(=O)[C@H](Cc2ccc(O)cc2)NC(=O)[C@@H]2CSSC[C@H](NC(=O)[C@H](Cc4ccc(O)cc4)NC3=O)C(=O)N[C@@H](CC(N)=O)C(=O)N[C@@H](CCCCN)C(=O)N[C@@H](CCCNC(=N)N)C(=O)NCC(=O)N[C@@H](CC(=O)O)C(=O)N[C@@H](Cc3c[nH]c4ccccc34)C(=O)N[C@@H](CCCNC(=N)N)C(=O)N[C@@H](CO)C(=O)N[C@@H](CCCCN)C(=O)N2)NC(=O)[C@@H]2CCCN2C(=O)[C@H](C(C)C)NC(=O)[C@H](CCC(N)=O)NC(=O)[C@H](CCC(N)=O)NC(=O)CNC1=O [Clone 2bJ]	bound K562-αIIbβ3 cells only
CC(C)C[C@@H]1NC(=O)[C@@H]2CSSC[C@@H]3NC(=O)[C@H]([C@@H](C)O)NC(=O)[C@H](C)NC(=O)[C@H](C)NC(=O)[C@@H]4CCCN4C(=O)[C@H](CC(=O)O)NC(=O)[C@H](CSSC[C@H](NC(=O)CNC(=O)[C@H](CCCNC(=N)N)NC(=O)[C@@H]4CCCN4C(=O)[C@H](CCCCN)NC(=O)[C@H](CC(=O)O)NC(=O)[C@H](CC(=O)O)NC(=O)[C@H](CC(=O)O)NC(=O)[C@H](CC(=O)O)NC(=O)[C@H](CCCCN)NC(=O)[C@H](Cc4ccc(O)cc4)NC(=O)[C@H](CC(=O)O)NC(=O)[C@@H](NC(=O)[C@@H](N)Cc4ccc(O)cc4)C(C)C)C(=O)N[C@@H](C(C)C)C(=O)N[C@@H](CCCNC(=N)N)C(=O)N[C@@H](CC(C)C)C(=O)N[C@@H](Cc4c[nH]cn4)C(=O)N[C@@H](CCC(=O)O)C(=O)N[C@@H](CO)C(=O)N2)NC(=O)[C@H](CSSC[C@@H](C(=O)N[C@@H](CCCNC(=N)N)C(=O)N[C@H](C(=O)N[C@@H](CCCNC(=N)N)C(=O)N[C@@H](Cc2c[nH]cn2)C(=O)N[C@@H](Cc2c[nH]cn2)C(=O)N[C@@H](Cc2c[nH]cn2)C(=O)N[C@@H](Cc2c[nH]cn2)C(=O)N[C@@H](Cc2c[nH]cn2)C(=O)N[C@@H](Cc2c[nH]cn2)C(=O)O)[C@@H](C)O)NC(=O)[C@H](Cc2ccc(O)cc2)NC(=O)[C@@H]2CSSC[C@H](NC(=O)[C@H](Cc4ccc(O)cc4)NC3=O)C(=O)N[C@@H](CCCCN)C(=O)N[C@@H](CCCCN)C(=O)N[C@@H](CCCNC(=N)N)C(=O)NCC(=O)N[C@@H](CC(=O)O)C(=O)N[C@@H](Cc3c[nH]c4ccccc34)C(=O)N[C@@H](CCCCN)C(=O)N[C@@H](CCC(=O)O)C(=O)N[C@@H](CCCNC(=N)N)C(=O)N2)NC(=O)[C@@H]2CCCN2C(=O)[C@H](C(C)C)NC(=O)[C@H](CCC(N)=O)NC(=O)[C@H](CCC(N)=O)NC(=O)CNC1=O [Clone 2bO]	bound K562-αIIbβ3 cells only
CC(C)C[C@@H]1NC(=O)[C@@H]2CSSC[C@@H]3NC(=O)[C@H]([C@@H](C)O)NC(=O)[C@H](C)NC(=O)[C@H](C)NC(=O)[C@@H]4CCCN4C(=O)[C@H](CC(=O)O)NC(=O)[C@H](CSSC[C@H](NC(=O)CNC(=O)[C@H](CCCNC(=N)N)NC(=O)[C@@H]4CCCN4C(=O)[C@H](CCCCN)NC(=O)[C@H](CC(=O)O)NC(=O)[C@H](CC(=O)O)NC(=O)[C@H](CC(=O)O)NC(=O)[C@H](CC(=O)O)NC(=O)[C@H](CCCCN)NC(=O)[C@H](Cc4ccc(O)cc4)NC(=O)[C@H](CC(=O)O)NC(=O)[C@@H](NC(=O)[C@@H](N)Cc4ccc(O)cc4)C(C)C)C(=O)N[C@@H](C(C)C)C(=O)N[C@@H](CCCNC(=N)N)C(=O)N[C@@H](CC(C)C)C(=O)N[C@@H](Cc4c[nH]cn4)C(=O)N[C@@H](CCC(=O)O)C(=O)N[C@@H](CO)C(=O)N2)NC(=O)[C@H](CSSC[C@@H](C(=O)N[C@@H](CCCNC(=N)N)C(=O)N[C@H](C(=O)N[C@@H](CCCNC(=N)N)C(=O)N[C@@H](Cc2c[nH]cn2)C(=O)N[C@@H](Cc2c[nH]cn2)C(=O)N[C@@H](Cc2c[nH]cn2)C(=O)N[C@@H](Cc2c[nH]cn2)C(=O)N[C@@H](Cc2c[nH]cn2)C(=O)N[C@@H](Cc2c[nH]cn2)C(=O)O)[C@@H](C)O)NC(=O)[C@H](Cc2ccc(O)cc2)NC(=O)[C@@H]2CSSC[C@H](NC(=O)[C@H](Cc4ccc(O)cc4)NC3=O)C(=O)N[C@@H](CC(C)C)C(=O)N[C@@H](CCCCN)C(=O)N[C@@H](CCCNC(=N)N)C(=O)NCC(=O)N[C@@H](CC(=O)O)C(=O)N[C@@H](Cc3c[nH]c4ccccc34)C(=O)N[C@@H](CCCCN)C(=O)NCC(=O)N[C@@H](CCCCN)C(=O)N2)NC(=O)[C@@H]2CCCN2C(=O)[C@H](C(C)C)NC(=O)[C@H](CCC(N)=O)NC(=O)[C@H](CCC(N)=O)NC(=O)CNC1=O [Clone 2bA]	bound K562-αIIbβ3 cells only

Source: US8778888B2, “Cystine knot peptides binding to alpha IIb beta 3 integrins and methods of use” (The Board of Trustees of the Leland Stanford Junior …, priority 2009, dated 2014)
